# Reference: patent publication US20240382484A1, “COMPOSITION FOR TREATING, PREVENTING, OR AMELIORATING MELANOMA AND METHOD THEREOF” (Thomas Jefferson University, priority 2021, published 2024)
# Columns and labels:
# [1] = tested on: human NRAS mutant melanoma cell lines; test: 72 hours drug combination, cell density by IncuCyte, synergy by Combenefit with Loewe method; type: cell-based; details: for synergy with MEKi (trametinib): WM1361A and WM1366 cells, 72 hours
# Procedure: FIG. 10A-10B: Cas9 expressed clone WM1361A-iCas9 #1 (FIG. 10A), and WM1366-iCas9 #11 (FIG. 10B) cells were treated for 72 hours as indicated with GSK2334470 and trametinib and analyzed for cell density by IncuCyte. Synergy graphs were generated utilizing Combenefit Software with Loewe method. Data are represented as the mean from three biological independent experiments.
# FIG. 11A: WM1361A, WM1366, SK-MEL-30 and SK-MEL-173 cells were treated for 72 hours as indicated with GSK2334470 and PD0325901 and analyzed for cell density by IncuCyte. Synergy graphs were generated utilizing Combenefit Software with Loewe method. Data are represented as the mean from three biological independent experiments. FIG. 11B: WM1361A, WM1366, SK-MEL-30 or SK-MEL-173 cells were treated with GSK2334470 (PDPK1i) and PD0325901 (PD901) alone or in combination (Comb) at the indicated concentrations for 7 days. Cell growth was monitored by IncuCyte every 2 hours. Data are represented as the mean±SEM of three biological independent experiments. p values were calculated with an unpaired two-tailed t test. n.s., not significant.
# FIG. 16A: WM1361A and WM1366 cells were treated for 72 hours with indicated inhibitors and analyzed for cell density by IncuCyte. Synergy graphs were generated utilizing Combenefit Software with Loewe method. Data are represented as the mean from three biological independent experiments.
# Human WM1361A and WM1366 melanoma cell lines were cultured in MCDB153 (Sigma) with 2% FBS, 20% Leibowitz L-15 medium, and 5 μg/mL insulin (WM medium). Human SK-MEL-30 and SK-MEL-173 melanoma cell lines were cultured in RPMI-1640 with 10% FBS. […] All cells were cultured at 37° C. in a humidified atmosphere containing 5% CO2. […] Cell lines were STR analyzed, confirmed for NRAS/Nras mutation, and tested to be mycoplasma-free during experiments. For cell proliferation and drug response, cells were monitored by IncuCyte® (Essen Bioscience, Ann Arbor, MI) every 2 hours.
# NRAS mutant melanoma = details: Phase III, NRAS mutant melanoma patients; cited from earlier work
# [2] = tested on: mouse Nras mutant melanoma cell lines; test: 72 hours drug combination, cell density by IncuCyte, synergy by Combenefit with Loewe method; type: cell-based; details: two mouse lines (1007 and 1014), 3-day treatment
# Procedure: FIG. 2A: NRAS mutant melanoma cell line WM1361A, WM1366, SK-MEL-30, SK-MEL-173, 1007 and 1014 were treated for 72 hours as indicated with GSK2334470 and trametinib and analyzed for cell density by IncuCyte. Synergy graphs were generated utilizing Combenefit Software with Loewe method. Data are represented as the mean from three biological independent experiments. FIG. 2B: WM1361A, WM1366, SK-MEL-30 or SK-MEL-173 cells were treated with GSK2334470 (PDPK1i) and trametinib (tram) alone or in combination (comb) at the indicated concentrations for 7 days. Cell growth was monitored by IncuCyte every 2 hours. Media were replaced twice with drugs during culture. Data are represented as the mean±SEM of three biological independent experiments. p values were calculated with an unpaired two-tailed t test. n.s., not significant.
# To further analyze synergistic effects, the growth response of a panel of several NRAS mutant cells to titrated PDPK1i (GSK2334470) and MEKi (trametinib) combinations was assessed.
# Human WM1361A and WM1366 melanoma cell lines were cultured in MCDB153 (Sigma) with 2% FBS, 20% Leibowitz L-15 medium, and 5 μg/mL insulin (WM medium). […] Cell lines were STR analyzed, confirmed for NRAS/Nras mutation, and tested to be mycoplasma-free during experiments. For cell proliferation and drug response, cells were monitored by IncuCyte® (Essen Bioscience, Ann Arbor, MI) every 2 hours.
# WM1361A-iCas9 #1 cells = test: Growth inhibition by single agents or combined inhibitors for 3 days, Bliss independence model; type: cell-based, human
# Procedure: FIGS. 1A-1H: CRISPR screen identifies PDPK1, in accordance with some embodiments. FIG. 1A: Workflow of the CRISPR-Cas9 screen for genes that are essential for cell survival or act as regulators of trametinib (MEKi) sensitivity and resistance in NRAS mutant melanoma WM1361A-iCas9 #1 cells. FIGS. 1B-1D: WM1361A-iCas9 #1 cells were transduced with the Guide-it CRISPR Genome-Wide sgRNA Library. After 3 days, mCherry positive cells were determined by FACS analysis (FIG. 1). On the 24th day post infection, the cells were treated with 20 nM trametinib for further 14 days (FIG. 1C) or 0.01-0.02 nM trametinib for further 28 days (FIG. 1D). The top enriched or depleted sgRNAs targeted genes are shown. FIG. 1E, The top depleted sgRNAs targeted genes before trametinib treatment. FIG. 1F: WM1361A-iCas9 #1 cells were treated with single agents or combined inhibitors for 3 days. The growth inhibition was shown as observed inhibition (left), or was calculated as Bliss independence model (middle). The synergistic or antagonist effects (right) were calculated as Observed inhibition %−Expected inhibition %. […]
# The present study further analyzed druggable essential genes with high STARS scores (>2.14 of NRAS) in WM1361A-iCas9 cells which were also identified as therapeutic targets with high priority scores (>30) in NRAS mutant melanoma SK-MEL-2 cells in a published database. […]
structure (smiles),measurement,setting,value
COc1ccc(-c2ccc3c(N4CCOC[C@@H]4C)nc(N4CCOC[C@@H]4C)nc3n2)cc1CO [AZD8055],synergy with MEKi (trametinib),[1],reduced synergy and even antagonistic effects
"Cn1cnc2c(F)c(Nc3ccc(Br)cc3F)c(C(=O)NOCCO)cc21 [Binimetinib, 5-((4-bromo-2-fluorophenyl)amino)-4-fluoro-N-(2-hydroxyethoxy)-1-methyl-1H-benzo[d]imidazole-6-carboxamide]",progression-free survival over standard chemotherapy (dacarbazine),NRAS mutant melanoma,modest advantage
Cc1nc(-c2cn3c(n2)-c2ccc(-c4cnn(C(C)(C)C(N)=O)c4)cc2OCC3)n(C(C)C)n1 [GDC-0032],synergy with MEKi (trametinib),[1],synergy with trametinib comparable to those with PDPK1i
"CNc1nc(-c2ccc3c(N)n[nH]c3c2)cc(N2C[C@@H](C(=O)NC3CCCCC3)CC[C@H]2C)n1 [GSK2334470, (3S,6R)-1-[6-(3-Amino-1H-indazol-6-yl)-2-(methylamino)-4-pyrimidinyl]-N-cyclohexyl-6-methyl-3-piperidinecarboxamide]","synergistic inhibition of cell viability, PDPK1i (GSK2334470) and MEKi (trametinib) combinations","[1]; two Cas9-expressed cell lines and four parental human lines (WM1361A, WM1366, SK-MEL-30, SK-MEL-173), 3-day treatment",Synergistic inhibition
same,"synergistic inhibition of cell viability, PDPK1i (GSK2334470) and MEKi (trametinib) combinations",[2],Synergistic inhibition
same,synergy with MEKi (trametinib) on growth inhibition,WM1361A-iCas9 #1 cells,synergistic
Cl.Cl.NC1(c2ccc(-c3nc4ccn5c(=O)[nH]nc5c4cc3-c3ccccc3)cc2)CCC1 [MK-2206 2HCl],synergy with MEKi (trametinib),[1],reduced synergy and even antagonistic effects
